Results taken from a melting point compilation (Tetko et al.; mined from patent text by program, amines drawn as free bases though some values may be those of a salt).

melting point [°C]	Structure (SMILES)
187	Cc1nc(NCc2ccccc2)[nH]c(=O)c1CCO
160 to 163	CC(C)(C)c1cc(-c2nn(Cc3cccc(C(F)(F)F)c3)c3ncccc23)cc(C(C)(C)C)c1O
111 to 113	CC(C)c1ccc(Cn2nnnc2-c2ccc(OC(=O)C(C)(C)C)cc2)cc1
268 to 273	COc1ccc(N2C(=O)N(c3cccc(C(N)=O)c3)c3nc(Nc4ccccc4)ncc3C2C)cc1 (centres undefined)
65 to 69	O=C1c2ccccc2C(c2ccccc2)N1C1CCN(CCC(c2ccccc2)c2ccccc2)CC1 (centres undefined)
118 to 119	Cc1cccc2c(-c3ccc(C(F)(F)F)cc3)onc12
226 to 227	CC1(C)Oc2ccc(C#N)cc2[C@@H](N(C(N)=O)c2ccccc2)[C@@H]1O (relative stereo)
75 to 77	CCOC(=O)C(=CNc1ccn(Cc2ccco2)n1)C(=O)c1ccccc1
148 to 149	CN1N=C(c2ccccc2Cl)N(C)N=C1c1ccccc1Cl
246 to 249	COc1ccc(-c2ccnc3c(C(N)=O)ncn23)cc1
296	CN1CC=C(C(=O)N2c3ccccc3C(=O)Nc3cccc(Cl)c32)CC1
166 to 168	COc1cc(Cl)cc(C)c1Nc1nc2c(Cl)ccc(C(=C(C)C)C(C)C)c2n1C
64 to 67	CC(NO)c1ccc2c(c1)Sc1ccccc1O2 (centres undefined)
91 to 93	Fc1cccc(OCc2nnc(-c3ccc4c(c3)CCO4)o2)c1
208 to 210	COCCCn1c(=O)[nH]c2ncc(-c3ccc(O)cc3)nc21
168 to 169	CN1CCC(=C2c3cc(Cl)ccc3CC(=O)c3sccc32)CC1
130 to 131	Cc1nc(C)c(Cl)c(NCc2ccc(OCc3ccccc3)cn2)n1
236 to 238	COC(=O)C1=C(N(c2ccccc2)c2ccccc2)CC(C(=O)OC)=C(N(c2ccccc2)c2ccccc2)C1
116 to 119	Cc1nccn1C(=O)c1c(Cl)cccc1Cl
148 to 149	CC(=O)NCc1ccc(CN2CCN(c3ccccc3)CC2)cc1N
174 to 176	CCc1nc(/C=C/c2cn(-c3ccccc3C)nc2O)cs1
210	O=C1Nc2ccccc2N2C1CCC2c1cccc(Cl)c1 (centres undefined)
207 to 208	COc1cc2c3c(cccc3c1)C(=O)c1c(O)cccc1-2
52 to 56	CC(C)(C)c1ocnc1/C=C1\NC(=O)[C@H](Cc2ccccc2)NC1=O

melting point [°C]	Structure (SMILES)
210 to 211	Cc1csc(-c2nc(=O)c3ccccc3s2)n1
112 to 115	O=C(Nc1ccc(C(=O)N2Cc3ccccc3Sc3ccccc32)cc1)c1ccc(Cl)cc1Cl
120	Cc1ccc(-c2c(Cl)nc(-c3cccs3)nc2Cl)cc1
248 to 250	FC(F)(F)c1cccc(Nc2nc(Cl)nc3nc[nH]c23)c1
139 to 141	N#CC(=Cc1cccnc1)c1cc(Cl)cc(Cl)c1
155	COc1ccc(C2=NN(Cc3ccc([N+](=O)[O-])cc3)C(=O)SC2)cc1OC
146 to 148	CC(CCCn1c(C)nc2c(N)nc3ccccc3c21)=NOCc1ccccc1
130	COc1ccc(S(=O)(=O)N(CC(N)=O)c2ccc(N(C)C)cc2Cc2ccccc2Cl)cc1OC
191 to 192	CC1(C)COc2ccc(C[C@@H](NC(=O)c3cccc4c(Cl)cccc34)[C@@H](O)c3cccc(Cl)c3)cc21 (racemic)
51 to 55	CCCCCCCCOCC(O)COc1ccc(-n2nc3ccccc3n2)c(O)c1 (centres undefined)
155 to 157	CN(c1ccccc1)N1C(=O)C(Cl)=C(c2ccc(Cl)cc2)C1=O
82.5 to 84	CCCCc1cn(C)cc(-c2cccc(C(F)(F)F)c2)c1=O
285 to 290	N#Cc1ccc(-c2cn(-c3ccc(I)cc3)c(S)n2)cc1
151 to 153	Clc1ccc(C(OCCN2CCOCC2)(c2ccc(Cl)cc2)c2ccc(Cl)cc2)cc1
125 to 126	CC(C)(COc1ccc(O)c(C(N)=O)c1)NCC(O)COc1ccccc1C#N (centres undefined)
160	COc1ccc(-c2oc(CCCCCc3nnn[nH]3)nc2-c2ccc(Cl)cc2)cc1
205 to 208	COc1ccc(CNc2n[nH]c3ncnc(Nc4cccc(Cl)c4)c23)cc1Cl
261 to 263	COc1ccc(-c2nc3cccc(C(N)=O)c3[nH]2)cc1
237 to 238	CC(C)Cn1c(=O)n(C)c(=O)c2c(Sc3nnc[nH]3)c(Cc3csc4ccccc34)sc21
258 to 260	CC(=O)N1c2ccccc2Sc2c(O)c(O)c3ccccc3c21
113 to 114	COc1ccc(N2C(=O)C(=CN(C)C)c3ccccc32)cc1F
203 to 204	Cn1c(=O)n(CC2(C)Cn3cc([N+](=O)[O-])nc3O2)c2ccccc21 (centres undefined)
193 to 194	Cc1ccc(N2CC(=O)N(C)C(=O)N2)cc1

Continued, molecule first:

Structure (SMILES)	melting point [°C]
CCCCCCCc1ccc(OC(=O)c2ccc3c(c2N)C(=O)c2ccc(C)c([N+](=O)[O-])c2C3=O)cc1	257 to 259
Cc1c(C(F)(F)F)cnn(-c2ncc(Cl)cc2F)c1=O	91 to 93
N#Cc1c(F)nc2ccc([N+](=O)[O-])cc2c1F	128 to 129
CCOC(=O)Cc1nsc(Nc2ccc(F)c(F)c2)n1	84 to 90
CC(C)(C)C(=O)SC/C(=C/c1ccccc1)C(=O)O	88
NC(=S)C(F)(F)c1ccccc1	99 to 100
COc1nc(C(F)(F)F)cc(=O)n1-c1cc(OCCON=C(C)C)c(Cl)cc1F	136 to 138
CC(C)(C)OC(=O)N1CCC(S(C)(=O)=O)CC1	94 to 95
O=C(NCCCCCCOc1ccccc1C(=O)Nc1ccc(C(=O)N2CCCCc3ccccc32)cc1)c1ccccc1	178
CC1Cc2cc(S(N)(=O)=O)cc(C(=O)NCC3CCCN3C)c2O1 (centres undefined)	187 to 189
CSc1nn(-c2c(Cl)cc(Cl)cc2Cl)c(N)c1C(N)=O	198 to 199
O=C1N(CC2CCCO2)c2ccccc2C12COc1c[nH]c(=O)cc12 (centres undefined)	> 250
CCCn1c(CCOC)nc2c(N)nc3cc(OC4CCN(C(=O)OC(C)(C)C)CC4)ccc3c21	173 to 175
Cc1cc([N+](=O)[O-])cc(C=O)c1O	132 to 133
CC1=C(OCC(C)C)CCC(C)(C)C1(O)C[Si](C)(C)C (centres undefined)	50
O=C(Nc1cc(-n2cccn2)nc(-c2ccco2)n1)OCC1CCCC1	60 to 61.3
NCCc1csc(N)n1	69 to 71
COC(=O)CCSc1cc(=O)c2c(O)cc(O)c(C3CCN(C)CC3O)c2o1 (centres undefined)	78
CCOC(=O)c1ccc(-c2[nH]nc3c2C(=O)c2c(NC(=O)NN4CCN(C)CC4)cccc2-3)s1	249

Structure (SMILES)	melting point [°C]
COc1ccc(F)c2c(OC)c(C=O)ccc12	129 to 131
CC(=O)Nc1ccc2[nH]cc(CC#N)c2c1	172 to 175
COc1ccc(N2CCN(c3c(C)c4c(c(C)c3Br)OC(C)(C)C4)CC2)cc1	180 to 181
CC(=O)N1c2ccccc2OP1c1ccccc1 (centres undefined)	73 to 75
COc1ccc(-c2nc(C#N)c[nH]2)cc1	219 to 220
CCOC(=O)CC(=O)c1ccc(-c2ccc(Cl)cc2)o1	46 to 47
O=C(Cc1ccc(OCc2cccs2)cc1)NC1(C(=O)O)Cc2ccc(-c3ccc(Cl)cc3)cc2C1 (centres undefined)	201
Cn1nnnc1CC(=O)c1ccc(C(F)(F)F)cc1N	200 to 201
CNC(=O)c1ccc(N2CCN(Cc3cc4c(c(OC)c3)OC(C)C(=O)N4)CC2)c(F)c1 (centres undefined)	241 to 244
O=C(O)CCC(=O)CCS	40 to 42
O=S(=O)(NCCCCOc1ccc(-n2ccnc2)cc1)c1ccc(I)cc1	150 to 152
CCNC(=S)Nc1nc2ccc(OC(F)(F)F)cc2s1	199 to 200
CC(CC1CCNCC1)c1c[nH]c2ccccc12 (centres undefined)	125
CN(Cc1ccc(NC(=O)C2=Cc3cc(-c4ccc(F)cc4)ccc3S(=O)(=O)CC2)cc1)C1CCOCC1	219 to 221
CCCCCCc1c(F)cc(C2C=CC(CCCCC)=CC2)cc1F (centres undefined)	35
N#CCCSCc1csc(NC(=N)N)n1	127 to 128
O=C(C=Cc1ccc(-c2ccc(OCCCN3CCCCC3)cc2)cc1)N1CCCCC1	146 to 150
O=C1CCCc2c1c1cccc3c1n2CCC3	160 to 164
CS(=O)(=O)NC1CCN(c2ccc(C#N)c3ccccc23)C1 (centres undefined)	128 to 129

Structure (SMILES)	melting point [°C]
O=C1CNC(c2ccc([N+](=O)[O-])cc2)=NN1	284 to 286
CC(=O)Nc1ncc(C=O)s1	235 to 236
COC(=O)c1cc2cc(CBr)ccc2s1	108 to 110
Nc1nc2cc(F)ccc2s1	167
CC1(C)C(C=C(Cl)Cl)C1(C#N)C(=O)O (centres undefined)	128 to 132
CNC(=NC#N)NCc1ncc(-c2csc(N=C(N)N)n2)s1	258 to 259
O=C1C=CC(=O)c2cc(C(F)(F)F)ccc21	80 to 85
Cc1ccc(C(=O)n2c3c(c4cc(F)ccc42)CC(C(=O)O)CC3)cc1 (centres undefined)	229 to 231
CCn1cc(C(=O)O)c(=O)c2cc(F)c(N3CCNC(c4ccoc4)C3)cc21 (centres undefined)	202 to 204
COC(=O)c1ccc(C#CCc2ccc3c(c2)C(C)(C)CCC3(C)C)cc1O	75 to 77
Cc1cccc(C(=O)Nc2nc(=O)n(C3OC(C)C(O)C3O)cc2F)c1 (centres undefined)	146 to 148
COc1ccc(C)cc1NC(=O)Nc1ccc(N2CCN(C(=O)C3CCCCC3)CC2)cc1	222
Cc1cc(-c2noc(CO)n2)ccc1Br	111 to 112
CC(C)C(O)c1cc2ccncc2[nH]1 (centres undefined)	140 to 144
COc1ccc(CC(CC(=O)O)CC(=O)O)cc1	109 to 110
Oc1ccc(-c2nc(COc3ccc(CCCn4ccnc4)cc3)co2)cc1	182 to 183
CC[C@@H]1CCCN1CCc1cc2cc(-c3ccc(C#N)cc3)ccc2o1	147
CC1(C)CCC(C)(C)c2ccccc21	71 to 72
O[C@H](CCc1cccnc1)COc1ccc(-c2ccc(F)cc2)cc1	124 to 125
